IC50 and EC50 data for 1 compound are collected here from patent US7915291B2, “Hepatitis C virus inhibitors” (Bristol-Myers Squibb Company, priority 2002, dated 2011).

One assay addresses T1, human liver cathepsin B (Homo sapiens, UniProt P07858).
T1 construct: purchased Sigma; host or cells: human liver (as named)
In words: Specificity assay, cathepsin B. In kind it is biochemical. To be noted: 2 hr pre-incubation. The protocol:
(§1) The specificities of compounds of the present invention were determined against a variety of serine proteases: human leukocyte elastase (HLE), porcine pancreatic elastase (PPE) and human pancreatic chymotrypsin and one cysteine protease: human liver cathepsin B. In all cases a 96-well plate format protocol using colorimetric p -nitroaniline (pNA) substrate specific for each enzyme was used as described previously (Patent WO 00/09543) with some modifications to the serine protease assays. All enzymes were purchased from Sigma while the substrates were from Bachem.
(§2) Each assay included a 2 hr enzyme-inhibitor pre-incubation at RT followed by addition of substrate and hydrolysis to ˜30% conversion as measured on a Spectramax Pro microplate reader. Compound concentrations varied from 100 to 0.4 μM depending on their potency. […]
(§3) The percentage of inhibition was calculated using the formula: [1−((UVinh−UVblank)/(UVctl−UVblank))]×100 […]

Assay [1] has as its target T2, human pancreatic chymotrypsin (Homo sapiens, UniProt P17538).
T2 construct: purchased Sigma
In words: Specificity assay, chymotrypsin. Format: biochemical. To be noted: 2 hr pre-incubation. The procedure:
as §1, §2, §3

Assay [2] has as its system HCV replicon in Huh7 cells. In words: HCV replicon cell-based assay. Set-up: species or system HCV strain 1B. To be noted: Hepatitis C virus, Huh-7, HCV replicon, Huh7 cells. On the technique in general: Replicon systems follow genome replication, usually without infectious particles.
Assay [3] concerns the target T3, human leukocyte elastase (HLE) (Homo sapiens, UniProt P08246).
T3 construct: purchased Sigma
T3 sequence (P08246 30-267): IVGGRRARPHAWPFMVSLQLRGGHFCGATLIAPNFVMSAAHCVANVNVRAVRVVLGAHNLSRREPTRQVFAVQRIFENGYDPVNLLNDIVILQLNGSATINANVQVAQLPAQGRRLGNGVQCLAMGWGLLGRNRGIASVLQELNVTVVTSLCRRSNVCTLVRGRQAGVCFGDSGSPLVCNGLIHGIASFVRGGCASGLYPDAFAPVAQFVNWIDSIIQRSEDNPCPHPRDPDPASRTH
In words: Specificity assay, HLE. Format: biochemical. To be noted: 2 hr pre-incubation. The protocol:
as §1, §2, §3

SMILES strings stand for the structures. Read-outs that look alike come from different tables or passages of the source. A value given as a limit tells only on which side of the number the result lay.

T2 sequence (P17538 19-263): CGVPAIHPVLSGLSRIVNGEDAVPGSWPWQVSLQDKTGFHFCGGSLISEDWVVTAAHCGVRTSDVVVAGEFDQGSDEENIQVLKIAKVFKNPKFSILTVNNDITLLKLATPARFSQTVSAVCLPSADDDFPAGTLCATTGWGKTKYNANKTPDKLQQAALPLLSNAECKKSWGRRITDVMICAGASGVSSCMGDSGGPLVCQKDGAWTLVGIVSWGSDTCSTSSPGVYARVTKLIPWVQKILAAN

With `C=C[C@@H]1C[C@]1(NC(=O)[C@@H]1C[C@@H](Oc2nc(C3CC3)cc3ccccc23)CN1C(=O)[C@@H](NC(=O)OC(C)(C)C)C(C)(C)C)C(=O)NS(=O)(=O)C1CC1` [Compound 34], the IC50 at human liver cathepsin B is above 200000 nM; in assay [1] it was above 200000 nM; in assay [3], above 100000 nM. The EC50 was 100 to 1000 nM in assay [2] (read-out: EC50 range) and 166 nM in assay [2] (read-out: EC50 value in the replicon assay).

A word on the IC50: it is the concentration that gives 50% inhibition. By EC50 is commonly meant the concentration that produces a half-maximal response.
